Reference: patent US20080281105A1, “Novel Quinolinium Salts and Derivatives” (IMMUSOL INCORPORATED, priority 2005, published 2008)

Experiments:
HCT-116 = assay: Liquid growth culture with and without added glucose (alamarBlue); assay type: cell-based; settings: Homo sapiens
Excerpt: (§1) The method is as follows:

Panc-1 = assay: as above; assay type: cell-based; settings: Homo sapiens
Excerpt: as §1

Pc3M/N [1] = assay: as above; assay type: cell-based; settings: Homo sapiens, PC-3M
Excerpt: as §1

[2] = tested on: HCT116 colon cancer cells; settings: HCT116 xenograft, I.p.
Excerpt: Female athymic nude (nu/nu) mice were inoculated with HCT116 colon cancer cells, and the tumors were allowed to grow to a volume of about 150 mm^3.

T47D = assay: Cell growth in liquid culture (alamarBlue); settings: Homo sapiens, 72 h, read-out: IC50 (uM) Liquid culture
SKBR3 [3] = assay: Cell growth in liquid culture (alamarBlue); settings: Homo sapiens, SK-BR-3, 72 h, read-out: IC50 (uM) Liquid culture
MDA-231 [4] = assay: Cell growth in liquid culture (alamarBlue); settings: Homo sapiens, MDA-MB-231, 72 h, read-out: IC50 (uM) Liquid culture
MDA_MB-435 [5] = assay: Cell growth in liquid culture (alamarBlue); settings: Homo sapiens, MDA-MB-435, 72 h, read-out: IC50 (uM) Liquid culture
HS578 = assay: Cell growth in liquid culture (alamarBlue); settings: Hs578, 72 h, read-out: IC50 (uM) Liquid culture
SW480 = assay: Cell growth in liquid culture (alamarBlue); settings: Homo sapiens, SW480, 72 h, read-out: IC50 (uM) Liquid culture
DLD1 = assay: Cell growth in liquid culture (alamarBlue); settings: Homo sapiens, DLD-1, 72 h, read-out: IC50 (uM) Liquid culture
OVCAR-1 = assay: Cell growth in liquid culture (alamarBlue); settings: OVCAR1, 72 h, read-out: IC50 (uM) Liquid culture
PA-1 = assay: Cell growth in liquid culture (alamarBlue); settings: Homo sapiens, PA-1, 72 h, read-out: IC50 (uM) Liquid culture
A549 = assay: Cell growth in liquid culture (alamarBlue); settings: Homo sapiens, A549, 72 h, read-out: IC50 (uM) Liquid culture
NCI-H460 [6] = assay: Cell growth in liquid culture (alamarBlue); settings: Homo sapiens, NCI-H460, 72 h, read-out: IC50 (uM) Liquid culture
UACC257 = assay: Cell growth in liquid culture (alamarBlue); settings: Homo sapiens, UACC-257, 72 h, read-out: IC50 (uM) Liquid culture
A2058 = assay: Cell growth in liquid culture (alamarBlue); settings: Homo sapiens, A2058, 72 h, read-out: IC50 (uM) Liquid culture
HUVEC = assay: Cell growth in liquid culture (alamarBlue); settings: Homo sapiens, 72 h, read-out: IC50 (uM) Liquid culture
IMR90 = assay: Cell growth in liquid culture (alamarBlue); settings: Homo sapiens, IMR-90, 72 h, read-out: IC50 (uM) Liquid culture
CCD112/N = assay: Cell growth in liquid culture (alamarBlue); settings: 72 h, read-out: IC50 (uM) Liquid culture
MCF7 = assay: Cell growth in soft agar culture (alamarBlue); settings: Homo sapiens, MCF7, 168 h, read-out: IC50 (uM) Soft agar
SKBR3 [7] = assay: Cell growth in soft agar culture (alamarBlue); settings: Homo sapiens, SK-BR-3, 168 h, read-out: IC50 (uM) Soft agar
MDA-231 [8] = assay: Cell growth in soft agar culture (alamarBlue); settings: Homo sapiens, MDA-MB-231, 168 h, read-out: IC50 (uM) Soft agar
MDA_MB-435 [9] = assay: Cell growth in soft agar culture (alamarBlue); settings: Homo sapiens, MDA-MB-435, 168 h, read-out: IC50 (uM) Soft agar
HT29 = assay: Cell growth in soft agar culture (alamarBlue); settings: Homo sapiens, HT-29, 168 h, read-out: IC50 (uM) Soft agar
Pc3M/N [10] = assay: Cell growth in soft agar culture (alamarBlue); settings: Homo sapiens, PC-3M, 168 h, read-out: IC50 (uM) Soft agar
PC3 = assay: Cell growth in soft agar culture (alamarBlue); settings: Homo sapiens, PC-3, 168 h, read-out: IC50 (uM) Soft agar
DU145 = assay: Cell growth in soft agar culture (alamarBlue); settings: Homo sapiens, DU-145, 168 h, read-out: IC50 (uM) Soft agar
OVCAR-5 = assay: Cell growth in soft agar culture (alamarBlue); settings: Homo sapiens, OVCAR-5, 168 h, read-out: IC50 (uM) Soft agar
NCI-H460 [11] = assay: Cell growth in soft agar culture (alamarBlue); settings: Homo sapiens, NCI-H460, 168 h, read-out: IC50 (uM) Soft agar

Structure (SMILES): Cc1cc(/C=C/c2ccc3cc(N(C)C)ccc3[n+]2C)c(C)n1-c1ccccc1 [Example 1, Pyrvinium Phosphate]
- IC80 (HCT-116; HCT-116, HCT-116, (+) Glu): 1 µM
- IC80 (HCT-116; HCT-116, HCT-116, (−) Glu): 0.1 µM
- IC80 (Panc-1; PANC-1, Panc-1, (+) Glu): > 1 µM
- IC80 (Panc-1; PANC-1, Panc-1, (−) Glu): 0.1 µM
- IC80 (Pc3M/N [1]; (+) Glu): 1 µM
- IC80 (Pc3M/N [1]; (−) Glu): 0.1 µM
- Result: Tumor reduction [2]: Tumor reduction (25%)
- IC50 (T47D): ~0.03 µM
- IC50 (SKBR3 [3]): ~1 µM
- IC50 (MDA-231 [4]): 0.1 to 0.3 µM
- IC50 (MDA_MB-435 [5]): 0.3 to 1 µM
- IC50 (HS578): 0.1 to 0.3 µM
- IC50 (SW480): 0.3 to 1 µM
- IC50 (DLD1): 0.3 to 1 µM
- IC50 (OVCAR-1): 0.03 to 0.1 µM
- IC50 (PA-1): 0.03 to 0.1 µM
- IC50 (A549): 0.1 to 0.3 µM
- IC50 (NCI-H460 [6]): 0.1 to 0.33 µM
- IC50 (UACC257): ~0.1 µM
- IC50 (A2058): 0.1 to 0.3 µM
- IC50 (HUVEC): 0.03 to 0.1 µM
- IC50 (IMR90): 0.1 to 0.3 µM
- IC50 (CCD112/N): ~1 µM
- IC50 (MCF7): < 0.03 µM
- IC50 (SKBR3 [7]): ~1 µM
- IC50 (MDA-231 [8]): < 0.03 µM
- IC50 (MDA_MB-435 [9]): 0.03 to 0.1 µM
- IC50 (HT29): 0.03 to 0.1 µM
- IC50 (Pc3M/N [10]): ~0.3 µM
- IC50 (PC3): 0.1 to 0.3 µM
- IC50 (DU145): 0.3 to 1 µM
- IC50 (OVCAR-5): 0.03 to 0.1 µM
- IC50 (NCI-H460 [11]): 0.03 to 0.1 µM
